These results are taken from US20030232868A1, “Cyclic carboxylic acids as integrin antagonists” (priority 2000, published 2003).

The structures appear in SMILES notation. Like-named read-outs stand apart in the source and are kept apart here. Where only a bound is given, the exact number is not on record here.

By IC50 is commonly meant the midpoint of a concentration-inhibition curve. For orientation: melting point means the temperature of the solid-liquid transition.

Data set [1] deals with adhesion of Ramos cells to VCAM-1. In words: Adhesion of Ramos cells to immobilized VCAM-1 (domains 1-3) (Ramos—VCAM-1 assay). Format: cell-based. To be noted: Homo sapiens. From the text:
In Vitro Assay: Adhesion of Jurkat/Ramos Cells to Immobilized VCAM-1 (Domains 1-3)
Preparation of VCAM-1 (Extracellular Domains 1-3)
Complementary DNA (cDNA) encoding 7 domain form of VCAM-1 (GenBank accession #M60335) was obtained using Rapid-Screen™ cDNA library panels (OriGene Technologies, Inc) at Takara Gene Analysis Center (Shiga, Japan). The primers used were 5′-CCAAGGCAGAGTACGCAAAC-3′ (sense) and 5′-TGGCAGGTATTATTAAGGAG-3′ (antisense). PCR amplification of the 3 domain VCAM-1 cDNA was perform using Pfu DNA polymerase (Stratagene) with the following sets of primers: (U-VCAMd1-3) 5′-CCATATGGTACCTGATCAATTTAAAATCGAGACCACCCCAGAA-3′; (L-VCAMd1-3) 5′-CCATATAGCAATCCTAGGTCCAGGGGAGATCTCAACAGTAAA-3′. PCR cycle was 94° C. for 45 sec. 55° C. for 45 sec, 72° C. for 2 min, repeating 15 cycles. After the purification of the PCR product, the fragment was digested with KpnI-AvrII. The digested fragment was ligated into pBluescript IISK(−) (Strategene), which was linearized by digesting with KpnI-XhoI. The ligation was followed by transformation to a Dam/Dcm methylase-free E. coli strain SCS110 (Strategene) to create the donor plasmid pHH7. To direct VCAM-1 molecule into the insect cell secretory pathway, the VCAM-1 coding sequence was fused to signal peptide sequence of honeybee melittin. The resulting melittin-VCAM fusion was placed in correct orientation to the baculovirus polyhedrin promoter. Baculovirus transfer vector containing first 3-domain form VCAM-1 (pH 10) was constructed by ligation of 0.9 kb fragment from AvrII/Klenow/BclI digests of pH 7 into SalI/Klenow/BamHI digests of pMelBacB Invitrogen). Recombinant baculovirus was generated by using Bac-N-Blue™ Transfection kit (Invitrogen) according to the manufacture's instruction. The recombinant virus was amplified by infection to High-Five™ insect cells for 5-6 days, and virus titer was determined by plaque assay.
High-Five™ insect cells were pelleted in a 225 ml conical tube by centrifugation at 1000 rpm for 5 min. After discarding the supernatant, the pellet was resuspended in 1.5×10^9 pfu (MOI=5) of high-titer virus solution, followed by incubation for 1.5 hours at room temperature. The cells were pelleted again and washed once in fresh Express Five™ serum free medium. The cells were pelleted again and finally, resuspended in 200 ml of fresh Express Five TM medium, transferred to a 1,000 ml shaker flask, and incubated in a shaker at 27° C., 130 rpm, for 48 hours before the culture supernatant was collected. The purification of 3-domain form of VCAM-1 from the culture supernatant was performed by one-step anion exchange chromatography. Protein concentration was determined by using Coomassie protein assay reagent (Pierce) according to the manufacture's instruction.
Preparation of VCAM-1 Coated Microtiter Plates
Recombinant human VCAM-1 (extracellular domains 1-3) was dissolved at 1.0 μg/1 ml in PBS. Each well of the microtiter plates (Nalge Nunc International, Fluoro-nunc Cert, 437958) was coated with 100 μl of substrate or for background control with buffer alone for 15 hours at 4 C. After discarding the substrate solution, the wells were blocked using 150 μl per well of block solution Kirkegaard Perry Laboratories, 50-61-01) for 90 minutes. The plate was washed with wash buffer containing 24 mM Tris-HCl (pH 7.4), 137 mM NaCl, […] and 2 MM MnCl2 just before addition of the assay.
In Vitro Assay using Ramos Cells
Preparation of Fluorescence Labeled Ramos Cells:
Ramos cells (American Type Culture Collection, Clone CRL-1596) were cultured in RPMI 1640 medium (Nikken Bio Medical Laboratory, CM1101) supplemented with 10% fetal bovine serum (Hyclone, A-1119-L), 100 U/ml penicilin (Gibco BRL, 15140-122) and 100 μg/ml streptomycin (Gibco BRL, 15140-122) in a humidified incubator at 37° C. with 5% CO2. […]

Regarding `Cc1ccccc1NC(=O)Nc1ccc(CC(=O)N[C@@H](CC(C)C)C(=O)Nc2cc(Cl)c(C(=O)O)cc2Cl)cc1` [Example 50], the melting point was in the range of 185 to 188 °C. In data set [1] (Ramos, 1 h), this compound displayed an IC50 of 2000 to 10000 nM.

With `Cc1ccccc1NC(=O)Nc1ccc(CC(=O)N[C@@H](CC(C)C)C(=O)Nc2cc(C(=O)O)cc([N+](=O)[O-])c2)cc1` [Example 51], the melting point was in the range of 188 to 190 °C. Further, the IC50 in data set [1] (Ramos, 1 h) was 2000 to 10000 nM.

Turning to `Cc1ccccc1NC(=O)Nc1ccc(CC(=O)N[C@@H](CC(C)C)C(=O)N(C)c2nc(CC(=O)O)cs2)cc1` [Example 56], the melting point was in the range of 172 to 174 °C. Besides, in data set [1] (Ramos, 1 h), the IC50 is over 10000 nM.

`Cc1ccccc1NC(=O)Nc1ccc(CC(=O)N[C@@H](CCCCN)C(=O)Nc2ccc(C(=O)O)cc2)cc1.O=C(O)C(F)(F)F` [Example 58] came in with a melting point of 168 to 169 °C. The IC50 in data set [1] (Cell Type Ramos, adhesion to VCAM-1 coated plates, 1 hour at 37 C, IC50 value ranges, read-out: IC50) was under 500 nM.

`COCCCN(CC(=O)Nc1ccc(C(=O)O)cc1)C(=O)Cc1ccc(NC(=O)Nc2ccccc2C)cc1` [Example 59] showed a melting point of 210 to 218 °C. Also, the IC50 in data set [1] (Ramos, 1 h) was under 500 nM.
